This is an account of results in patent US4324796A, “Substituted oxiranecarboxylic acids, their use and medicaments containing them” (BYK Gulden Lomberg Chemische Fabrik Gesellschaft mit …, priority 1979, dated 1982).

Data set [1] deals with blood glucose concentration. Put plainly: Blood glucose lowering after single oral administration, fasting metabolically healthy guinea pigs. The data set is classed as in vivo, guinea pigs (young cross-bred male). The settings on record: Cavia porcellus.
Data set [2] in a line: Acute toxicity, guinea pig, peroral. The settings on record: in vivo, po; Table III; guinea pig p.o.; preliminary results. The source says:
Column C provides data relating to acute toxicity (LD50; guinea pig, peroral administration).

Data set [3] concerns blood glucose concentration. In words: Blood glucose lowering after single oral administration, fasting metabolically healthy rats.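 As to all read-outs here: young male Sprague-Dawley rats fasted 18 h, blood glucose sampled before dosing and at 3 and 5 h afterwards, compared with a solvent-treated control group.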 The settings on record: for ED50: Rattus norvegicus, po, 5 h; for ED50 (15%): dose which effects a lowering of the blood glucose concentration by 15% in 50% of the animals: Table II, rats p.o., α-methylenecarboxylic acid intermediates.
Another data set has as its system guinea pig. The settings on record: Table III; guinea pig p.o.; cited according to Proske et al. 1962; cited from earlier work.
Data set [4] has as its system blood glucose concentration. The settings on record: guinea pig, in vivo, po; cited from earlier work.
The nature of a further data set: in vivo. The settings on record: mouse, po, Table I, mice p.o., 7 days observation, read-out: LD50 (acute toxicity). On the procedure:
2. Determination of the toxicity
Various doses of the substances (volume: 10 ml/kg) are administered orally by means of a stomach tube. The observation time is 7 days.

Data set [5] relates to blood glucose concentration. The settings on record: rat, in vivo, po, 300 min.
Where [6] appears, read: 5 h, read-out: ED50 (15%): dose which effects a lowering of the blood glucose concentration by at least 15% in 50% of the animals.
Where [7] appears, read: 5 h, read-out: ED50 (25%): dose which effects a lowering of the blood glucose concentration by at least 25% in 50% of the animals.
Where [8] appears, read: read-out: ED50 (15%): dose which effects a lowering of the blood glucose concentration by at least 15% in 50% of the animals.
The mark [9] stands for this setting: read-out: ED50 (25%): dose which effects a lowering of the blood glucose concentration by at least 25% in 50% of the animals.
The mark [10] stands for this setting: Table III B, guinea pig p.o., single dose, 5 hours, vs control group, read-out: ED50 (15%): dose which effects a lowering of the blood glucose concentration by at least 15% in 50% of the animals.

Read-outs that look alike come from different tables or passages of the source.

With `O=C([O-])C1(CCCCCc2ccc(Cl)cc2)CO1.[Na+]` (stereo not drawn), the ED50 is 3 mg/kg in data set [1] (setting [6]), 8 mg/kg in data set [1] (setting [7]), 5 mg/kg in data set [3] (setting [8]) and 16 mg/kg in data set [3] (setting [9]). The molecule further yielded an LD50 in data set [2] of 300 to 400 mg/kg.
For `O=C([O-])C1(CCCc2ccc(Cl)cc2)CO1.[Na+]` (stereo not drawn), in that order: 12 mg/kg, 26 mg/kg, 20 mg/kg, 41 mg/kg and 500 to 600 mg/kg.
For `O=C([O-])C1(CCCc2cccc(C(F)(F)F)c2)CO1.[Na+]` (stereo not drawn), in that order: 6 mg/kg, 11 mg/kg, 14 mg/kg, 23 mg/kg and 300 to 400 mg/kg.
The like results for `O=C([O-])C1(CCCCCc2ccccc2)CO1.[Na+]` (stereo not drawn) were, in that order, 3 mg/kg, 7 mg/kg, 2 mg/kg, 12 mg/kg and 500 to 600 mg/kg.
On to “2-(3-Phenylpropyl)oxirane-2-carboxylic acid methyl ester [Example 13]”, for which the “ED50 (15%): dose which effects a lowering of the blood glucose concentration by 15% in 50% of the animals” value in data set [3] is 252 mg/kg.
Still for that read-out and setting: the value for “2-Benzyloxirane-2-carboxylic acid ethyl ester [Example 15]” was 80 mg/kg.
On to `CCCCNC(=N)NC(=N)N` [Serial No. 1, Buformin, reference compound], for which the “LD50 (acute toxicity)” value in the data set on guinea pig is 58 mg/kg. For the same molecule, in data set [4], the “ED50 (25%): dose which effects a lowering of the blood glucose concentration by 25% in 50% of the animals” value is 40 to 50 mg/kg. Besides, the values for the ED50 in data set [3] (setting [8]) and in data set [3] (setting [9]) were more than 100 mg/kg and 194 mg/kg, respectively.
`[H]/N=C(/N)N/C(=N/[H])NCCc1ccccc1` [Serial No. 2, Phenformin, reference compound]: the ED50 in data set [4] is 20 to 25 mg/kg; in data set [3] (setting [8]), more than 150 mg/kg; in data set [3] (setting [9]) it was more than 343 mg/kg.
For the molecule `CCOC(=O)C1(CCCc2ccc(Cl)cc2)CO1` (stereo not drawn) [Serial No. 3, 2-[3-(4-Chlorophenyl)propyl]oxirane-2-carboxylic acid ethyl ester], in “in vivo”, the LD50 is 730 mg/kg. Further, the results for the ED50 in data set [1] (setting [10]), in data set [3] (setting [8]) and in data set [3] (setting [9]) were 11 mg/kg, 40 mg/kg and 54 mg/kg, respectively.
As to `CCOC(=O)C1(CCCc2cccc(C(F)(F)F)c2)CO1` (stereo not drawn) [Serial No. 5, 2-[3-(3-Trifluoromethylphenyl)propyl]oxirane-2-carboxylic acid ethyl ester], the LD50 in the data set “in vivo” is approximately 300 mg/kg. In addition, the values for the ED50 in data set [1] (setting [10]), in data set [3] (setting [8]) and in data set [3] (setting [9]) were 3 mg/kg, 6 mg/kg and 24 mg/kg, respectively.
In the case of `CCOC(=O)C1(CCCCCc2ccccc2)CO1` (stereo not drawn) [Serial No. 7, 2-(5-Phenylpentyl)oxirane-2-carboxylic acid ethyl ester], the LD50 in the data set “in vivo” turned out to be 230 mg/kg. The ED50 in data set [1] (setting [10]) worked out at 11 mg/kg; in data set [5], 21 mg/kg; in data set [3] (setting [8]), 10 mg/kg.
For `CCOC(=O)C1(CCCCCc2ccc(Cl)cc2)CO1` (stereo not drawn) [Serial No. 9, 2-[5-(4-Chlorophenyl)pentyl]oxirane-2-carboxylic acid ethyl ester], in the data set “in vivo”, the LD50 worked out at 275 mg/kg. Moreover, the ED50 in data set [1] (setting [10]) amounted to 5 mg/kg; in data set [3] (setting [8]), 3 mg/kg; in data set [3] (setting [9]), 24 mg/kg.
As to `CCOC(=O)C1(CCCCc2ccccc2)CO1` (stereo not drawn) [Serial No. 11, 2-(4-Phenylbutyl)oxirane-2-carboxylic acid ethyl ester], the ED50 in data set [3] (setting [8]) was found to be 67 mg/kg.
Still for that read-out and setting: the result for `CCOC(=O)C1(CCCc2cccc(Cl)c2)CO1` (stereo not drawn) [Serial No. 12, 2-[3-(3-Chlorophenyl)propyl]oxirane-2-carboxylic acid ethyl ester] reads 59 mg/kg.
As for “Sodium 2-(3-phenylpropyl)oxirane-2-carboxylate [Example 14]”, the “ED50 (15%): dose which effects a lowering of the blood glucose concentration by 15% in 50% of the animals” value in data set [3] is more than 253 mg/kg.
